≈ marks a conversion by molar mass, not a printed value.

The nature of data set [1]: Efflux ratio of apparent permeability across apical to basolateral side in human Caco-2 cells at pH 6.5 at 10 uM incubated for 60 mins by UHPLC analysis. Particulars: Caco-2, pH 6.5. On the technique in general: Caco-2 cells form a polarised layer with tight junctions and transporters.
Data set [2] is described as follows: Lipophilicity, logD of the compound at pH 7.4 by chromatographic method. Particulars: buffer.
In data set [3] the target is T1, Sphingosine 1-phosphate receptor 2 (Homo sapiens, UniProt O95136). Kind of data set: Antagonist activity at human S1P2 receptor expressed in CHO cells assessed as inhibition of calcium flux. (A change in cytosolic calcium serves as a functional read-out for many receptors and channels.)
The target in data set [4] is T1, Sphingosine 1-phosphate receptor 2. Kind of data set: Antagonist activity at human S1P2 receptor expressed in CHO cells assessed as inhibition of [35S]GTPgammaS binding. On the technique in general: GTPγS is a poorly hydrolysed GTP analogue; its binding reports G protein activation.
The nature of data set [5]: Volume of distribution at steady state in CD1 mouse at 1 mg/kg, iv measured up to 24 hrs by LC-MS/MS analysis. Particulars: in vivo.
The nature of data set [6]: Half life in CD1 mouse at 1 mg/kg, iv measured up to 24 hrs by LC-MS/MS analysis. Particulars: in vivo.
Data set [7] in a line: Unbound plasma concentration in CD1 mouse at 5 mg/kg, po or 1 mg/kg, iv measured up to 24 hrs by LC-MS/MS analysis.
Data set [8] in a line: Thermodynamic solubility of compound at pH 7.4. Particulars: buffer.
Data set [9] is described as follows: Apparent permeability across apical to basolateral side in MDCK-MDR1 cells at 10 uM incubated for 1 hr by LC-MS/MS analysis. Particulars: dog.
Data set [10] in a line: Efflux ratio of apparent permeability across apical to basolateral side in MDCK-MDR1 cells at 10 uM incubated for 1 hr by LC-MS/MS analysis. Particulars: dog.
The nature of data set [11]: Apparent permeability across apical to basolateral side in human Caco-2 cells at pH 6.5 at 10 uM incubated for 60 mins by UHPLC analysis. Particulars: Caco-2, pH 6.5.
In data set [12] the target is T1, Sphingosine 1-phosphate receptor 2.
For data set [13] the target is unchanged. This is another data set of the same source.
The next data set can be described thus: cells. Particulars: Homo sapiens, HFL1.
A further data set can be described thus: in vivo. Particulars: CD1, mouse, po, 5 mg/kg.
Data set [14] addresses T1, Sphingosine 1-phosphate receptor 2. Kind of data set: Agonist activity at human S1P2 receptor expressed in CHO cells assessed as increase in calcium flux.
Data set [15] has as its target Sphingosine 1-phosphate receptor 1 (Homo sapiens, UniProt P21453). Kind of data set: Antagonist activity at human S1P1 receptor expressed in CHO cells assessed as inhibition of calcium flux. It counts as functional, cell-based.
Data set [16] has as its target T1, Sphingosine 1-phosphate receptor 2. Kind of data set: Displacement of sphingosine D-erythro [3-3H] I- phosphate from human S1P2 receptor expressed in CHO cell membrane.
Data set [17] shares this target. Kind of data set: Antagonist activity at S1P2 (unknown origin). It counts as functional.
Another data set deals with CYP450 (Homo sapiens, UniProt P04798+P05177+P05181+P08684+P10632+P10635+P11509+P11712+P13584+P20813+P20815+P20853+P24462+P24903+P33260+P33261+P51589+P78329+P98187+Q02928+Q08477+Q16678+Q16696+Q5TCH4+Q6VVX0+Q7Z449+Q8TAV3+Q96SQ9+Q9HB55). Kind of data set: Inhibition of CYP450 in human liver microsomes. It counts as ADME.
The next data set deals with Cytochrome P450 3A4 (Homo sapiens, UniProt P08684). Kind of data set: Induction of CYP3A4 in human cryopreserved hepatocytes assessed as mRNA expression at 10 uM incubated for 72 hrs relative to control. Format: ADME, cell-based, Hepatocyte.
The next data set concerns the target T2, PXR (Homo sapiens, UniProt O75469).
T2 sequence (O75469 whole entry): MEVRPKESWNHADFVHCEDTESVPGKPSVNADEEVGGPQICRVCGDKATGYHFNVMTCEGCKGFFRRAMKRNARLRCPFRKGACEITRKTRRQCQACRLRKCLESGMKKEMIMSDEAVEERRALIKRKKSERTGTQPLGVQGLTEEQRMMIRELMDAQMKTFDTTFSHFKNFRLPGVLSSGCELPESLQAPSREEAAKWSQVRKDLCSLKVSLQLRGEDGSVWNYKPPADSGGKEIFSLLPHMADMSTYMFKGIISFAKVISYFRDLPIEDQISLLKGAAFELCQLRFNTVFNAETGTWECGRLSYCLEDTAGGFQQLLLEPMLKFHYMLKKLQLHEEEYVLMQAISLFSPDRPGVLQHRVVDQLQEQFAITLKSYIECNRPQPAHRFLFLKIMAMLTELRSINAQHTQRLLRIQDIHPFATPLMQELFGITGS
Kind of data set: Activation of PXR in human DPX2 cells at 10 uM incubated for 24 hrs relative to control. Format: ADME, cell-based. Particulars: read-out: Activity.

Sequence of Sphingosine 1-phosphate receptor 1 (P21453 whole entry): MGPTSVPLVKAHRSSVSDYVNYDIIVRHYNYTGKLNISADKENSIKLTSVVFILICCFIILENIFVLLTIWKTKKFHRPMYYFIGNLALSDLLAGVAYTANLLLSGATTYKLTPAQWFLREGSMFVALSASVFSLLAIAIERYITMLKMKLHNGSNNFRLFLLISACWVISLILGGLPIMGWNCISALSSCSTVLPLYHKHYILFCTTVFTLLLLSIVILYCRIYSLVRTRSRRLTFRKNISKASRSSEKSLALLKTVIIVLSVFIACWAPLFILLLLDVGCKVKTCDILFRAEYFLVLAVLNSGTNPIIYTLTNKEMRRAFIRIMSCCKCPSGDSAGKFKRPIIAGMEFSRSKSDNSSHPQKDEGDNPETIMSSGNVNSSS
T1 sequence (O95136 whole entry): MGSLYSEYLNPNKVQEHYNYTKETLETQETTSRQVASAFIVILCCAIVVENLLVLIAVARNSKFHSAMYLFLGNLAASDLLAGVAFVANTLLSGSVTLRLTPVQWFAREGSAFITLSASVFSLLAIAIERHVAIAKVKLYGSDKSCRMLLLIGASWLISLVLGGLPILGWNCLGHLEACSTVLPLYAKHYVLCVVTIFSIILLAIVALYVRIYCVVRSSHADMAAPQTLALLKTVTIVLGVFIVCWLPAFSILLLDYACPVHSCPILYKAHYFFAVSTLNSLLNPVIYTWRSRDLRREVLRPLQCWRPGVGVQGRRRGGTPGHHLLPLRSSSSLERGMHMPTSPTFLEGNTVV
Sequence of Cytochrome P450 3A4 (P08684 whole entry): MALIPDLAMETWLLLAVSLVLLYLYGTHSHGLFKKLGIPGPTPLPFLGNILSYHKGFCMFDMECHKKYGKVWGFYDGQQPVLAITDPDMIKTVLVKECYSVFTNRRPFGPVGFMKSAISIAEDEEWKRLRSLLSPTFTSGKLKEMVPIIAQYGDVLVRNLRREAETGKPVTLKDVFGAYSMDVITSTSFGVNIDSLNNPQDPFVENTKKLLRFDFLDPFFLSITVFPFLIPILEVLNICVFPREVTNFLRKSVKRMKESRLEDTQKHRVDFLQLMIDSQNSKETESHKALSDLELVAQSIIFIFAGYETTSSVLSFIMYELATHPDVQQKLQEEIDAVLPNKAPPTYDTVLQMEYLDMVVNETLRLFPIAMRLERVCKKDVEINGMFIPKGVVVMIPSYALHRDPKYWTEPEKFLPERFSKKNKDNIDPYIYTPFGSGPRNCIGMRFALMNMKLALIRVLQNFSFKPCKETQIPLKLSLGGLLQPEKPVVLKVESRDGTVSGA

A word on the efflux ratio: it is a quotient of directional permeabilities that is used to spot active efflux. Usually chromatographic logD stands for lipophilicity estimated from chromatographic retention. Usually IC50 stands for the point on the concentration scale where inhibition reaches its midpoint. As a reminder, the Vd is a proportionality between amount in the body and measured concentration, not a real space. Low readings indicate confinement near the circulation, high ones extensive tissue distribution. As a reminder, the half-life is how long it takes for the measured level to halve. Higher therefore signals slow decline. Usually fraction unbound stands for the share of the substance not bound to proteins or other matrix. As usually defined, the solubility (thermodynamic) is solubility found after equilibrating the solid with the medium. As a reminder, the Papp A→B is the apparent permeability from the apical to the basolateral side of a cell layer. A word on the Cmax: it is the highest concentration seen after dosing. On to `CC(C(=O)O)c1nn(Cc2cn3cc(OCC4CC4)c(C(F)(F)F)cc3n2)c2ccccc2c1=O` (racemic), for which the efflux ratio at 1 h, 10 µM stood at 0.4 in data set [1] and 3.7 in data set [10]. This molecule yielded a chromatographic logD in [2] of 2.99. Besides, the IC50 in data set [3] came out at 0.0034 µM; in data set [4], 0.051 µM; in [12], 0.005 µM; in data set [13] it was 0.056 µM; in the data set “cells”, 0.0007 µM. For the same molecule, the distribution volume (Vd) at 24 h in data set [5] amounted to 0.66 L/kg. Further, the half-life at 24 h in data set [6] was 1.9 h. Moreover, the unbound share (fraction unbound) at 24 h in data set [7] stood at 0.007. In data set [8], this molecule yielded a thermodynamic solubility of 221 µg/mL (≈ 454 µM). Moreover, the figures for the apical-to-basolateral permeability (Papp A→B) at 1 h, 10 µM in data set [9] and in [11] were 2.5 ×10⁻⁶ cm/s and 15 ×10⁻⁶ cm/s, respectively. The same molecule had a Cmax at 24 h in “in vivo” of 3520 ng/mL.

In turn, `COc1cc(OC)c(NC(=O)Cc2cn(CC(=O)O)c3ccccc23)cc1Cl` returned a chromatographic logD in [2] of 2.13. Further, the IC50 is above 6.64 µM in data set [3]; above 23.3 µM in data set [14]; above 19.9 µM in data set [15]; 17.7 µM in data set [4]; 10.7 µM in data set [16].

In data set [17], `Cc1nn(C)c2nc(NNC(=O)Nc3cc(Cl)nc(Cl)c3)cc(C(C)C)c12` gave an IC50 of 0.017 µM.

As for `CCOc1cc2cn(Cc3nn(CC(=O)O)c(=O)c4ccccc34)nc2cc1Cl`, the 50% inhibitory concentration (IC50) in data set [3] is 0.149 µM; in data set [4], 0.113 µM; in data set [12] it was 0.023 µM; in data set [13], 1.62 µM; in the data set “cells”, 0.034 µM.

`C[C@H](C(=O)O)n1nc(Cn2cc3cc(OCC4CC4)c(Cl)cc3n2)c2ccccc2c1=O` showed an IC50 against CYP450 above 100 µM. The Activity on Cytochrome P450 3A4 is 4.4%. Moreover, the activity at 24 h, 10 µM at PXR worked out at 5.7%.

In the case of `CCn1nc(CC(=O)Nc2ccc(OC(F)(F)F)c(Cl)c2)c2ccccc2c1=O`, in data set [2], the chromatographic logD amounted to 5.42. Further, the IC50 in data set [3] is 0.199 µM; in data set [4] it was 0.473 µM.

Regarding `COc1cc(OC)c(NC(=O)Cc2nn(CC(=O)O)c(=O)c3ccccc23)cc1Cl`, in data set [15], the IC50 was above 19.9 µM.

In the case of `COc1cc(OC)c(NC(=O)Cn2nc(CC(=O)O)c3ccccc32)cc1Cl`, in data set [2], the chromatographic logD was determined as 1.86. The IC50 is 3.36 µM in data set [3]; above 23.3 µM in data set [14]; above 19.9 µM in [15]; 8.98 µM in [4]; 2.01 µM in data set [16].

In turn, `COc1cc(OC)c(NC(=O)Cc2cn(C)c3ccccc23)cc1Cl` had a chromatographic logD in [2] of 5.91. The half-inhibitory concentration (IC50) in data set [3] is above 8.13 µM; in data set [14], above 23.3 µM; in data set [15], above 19.9 µM; in data set [4] it was 19.2 µM; in data set [16] it was 3.79 µM.

In the case of `COc1ccc(NC(=O)Cc2nn(CC(=O)O)c(=O)c3ccccc23)c(OC)c1`, the chromatographic logD in data set [2] came out at 1.13. In addition, the IC50 in data set [3] was above 19.9 µM; in [14], above 23.3 µM.

The record behind these values is ChEMBL document CHEMBL5046225, “Discovery and Optimization of Orally Bioavailable Phthalazone and Cinnolone Carboxylic Acid Derivatives as S1P2 Antagonists against Fibrotic Diseases” (J Med Chem, 2021).
